Results published in PMC3968170 (PLoS Pathogens, 2014).

Legend:
HitS ICD = biological target: T1, HitS ICD (Bacillus anthracis, UniProt Q81RT2); conditions: 5 uM kinase, 37 C, 30 min; labelled compound
T1 construct: gene GBAA_1956

HssS ICD = biological target: T2, HssS ICD (Bacillus anthracis, UniProt A0AAC8N8V0); conditions: 5 uM kinase, 37 C, 30 min; labelled compound
T2 construct: gene BA_3260
T2 sequence (A0AAC8N8V0 189-458 limits assumed): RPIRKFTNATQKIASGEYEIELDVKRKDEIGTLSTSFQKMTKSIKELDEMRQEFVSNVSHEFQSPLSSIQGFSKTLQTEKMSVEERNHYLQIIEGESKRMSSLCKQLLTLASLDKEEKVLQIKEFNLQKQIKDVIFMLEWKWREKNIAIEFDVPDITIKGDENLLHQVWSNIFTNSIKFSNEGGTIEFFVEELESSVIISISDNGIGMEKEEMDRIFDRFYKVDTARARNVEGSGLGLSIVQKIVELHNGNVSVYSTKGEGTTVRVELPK

T1 sequence (Q81RT2 74-351 limits assumed): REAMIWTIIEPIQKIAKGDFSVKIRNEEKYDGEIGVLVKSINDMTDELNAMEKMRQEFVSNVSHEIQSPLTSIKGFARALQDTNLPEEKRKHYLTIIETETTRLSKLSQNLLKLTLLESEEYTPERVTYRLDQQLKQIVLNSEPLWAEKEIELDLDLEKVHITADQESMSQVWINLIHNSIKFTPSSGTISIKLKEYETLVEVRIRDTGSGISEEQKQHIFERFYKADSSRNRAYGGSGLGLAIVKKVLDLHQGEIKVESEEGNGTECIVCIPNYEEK

Compound: Nc1ncnc2c1ncn2[C@@H]1O[C@H](COP(=O)(O)OP(=O)(O)OP(=O)(O)O)[C@@H](O)[C@H]1O [ATP]
- autophosphorylation, SDS-PAGE and phosphorimager (HitS ICD): Both HKs autophosphorylate in the presence of ATP
- autophosphorylation, SDS-PAGE and phosphorimager (HssS ICD): Both HKs autophosphorylate in the presence of ATP
